The values that follow are results of earlier work, collected in US20050020810A1, “Peptides which target tumor and endothelial cells, compositions and uses thereof” (priority 2002, published 2005).

Data set [1] concerns DU145.
In data set [2] the test system is CT26 colon cancer. Conditions: in combination with 5-FU infusion.
Data set [3] relates to MatLyLu cells. The conditions noted are these: rat model.

Regarding Ac—PHSCN—NH2, the DU145 invasion entry in data set [1] is listed as “completely inhibits”. In data set [2], the survival result is recorded as “improved survival”. The “metastasis of MatLyLu cells” value in data set [3] was “completely inhibits”.
